Test results as given in ChEMBL document CHEMBL1156406, “New Xenia diterpenoids from the Indonesian soft coral Xenia sp” (J Nat Prod, 2002).

Key:
Type in all cases: functional, cell-based
[1] = test system: P388; assay: Cytotoxicity against mouse P388 cells
[2] = test system: HT-29; assay: Cytotoxicity against human HT-29 cells
[3] = test system: A549; assay: Cytotoxicity against human A549 cells
[4] = test system: SK-MEL-28; assay: Cytotoxicity against human SK-MEL-28 cells

Measured: IC50

C=C1CC[C@@H]2/C(=C/C=C/C(C)(C)O)C(=O)OC[C@H]2C(=C)CC[C@@H]1O
> 1 mg/L: [1] | [2] | [3] | [4]

C=C1CC[C@@H]2/C(=C/C=C/C(C)(C)O)C(=O)OC[C@H]2C(=C)C[C@@H](O)[C@@H]1O
> 1 mg/L: [1] | [2] | [3] | [4]

C=C1C[C@@H](O)C2OC2(C)CC[C@@H]2/C(=C/C=C/C(C)(C)O)C(=O)OC[C@@H]12 (stereo partly specified)
> 1 mg/L: [1] | [2] | [3] | [4]

C=C1C[C@@H](O)/C=C(\C)CC[C@@H]2/C(=C/C=C/C(C)(C)O)C(=O)OC[C@@H]12 [ISOXENIOLIDE A]
> 1 mg/L: [1] | [2] | [3] | [4]
